This passage reports EC50, IC50 and CC50 results from ChEMBL document CHEMBL1201862, “PubChem BioAssay data set” (2004).

For assay [1], the target named is T1, Apoptotic protease-activating factor 1 (Homo sapiens, UniProt O14727).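 Note: caspase-3 cleavage of fluorogenic Rh110 DEVD substrate downstream of apoptosome activation.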
T1 sequence (O14727 whole entry): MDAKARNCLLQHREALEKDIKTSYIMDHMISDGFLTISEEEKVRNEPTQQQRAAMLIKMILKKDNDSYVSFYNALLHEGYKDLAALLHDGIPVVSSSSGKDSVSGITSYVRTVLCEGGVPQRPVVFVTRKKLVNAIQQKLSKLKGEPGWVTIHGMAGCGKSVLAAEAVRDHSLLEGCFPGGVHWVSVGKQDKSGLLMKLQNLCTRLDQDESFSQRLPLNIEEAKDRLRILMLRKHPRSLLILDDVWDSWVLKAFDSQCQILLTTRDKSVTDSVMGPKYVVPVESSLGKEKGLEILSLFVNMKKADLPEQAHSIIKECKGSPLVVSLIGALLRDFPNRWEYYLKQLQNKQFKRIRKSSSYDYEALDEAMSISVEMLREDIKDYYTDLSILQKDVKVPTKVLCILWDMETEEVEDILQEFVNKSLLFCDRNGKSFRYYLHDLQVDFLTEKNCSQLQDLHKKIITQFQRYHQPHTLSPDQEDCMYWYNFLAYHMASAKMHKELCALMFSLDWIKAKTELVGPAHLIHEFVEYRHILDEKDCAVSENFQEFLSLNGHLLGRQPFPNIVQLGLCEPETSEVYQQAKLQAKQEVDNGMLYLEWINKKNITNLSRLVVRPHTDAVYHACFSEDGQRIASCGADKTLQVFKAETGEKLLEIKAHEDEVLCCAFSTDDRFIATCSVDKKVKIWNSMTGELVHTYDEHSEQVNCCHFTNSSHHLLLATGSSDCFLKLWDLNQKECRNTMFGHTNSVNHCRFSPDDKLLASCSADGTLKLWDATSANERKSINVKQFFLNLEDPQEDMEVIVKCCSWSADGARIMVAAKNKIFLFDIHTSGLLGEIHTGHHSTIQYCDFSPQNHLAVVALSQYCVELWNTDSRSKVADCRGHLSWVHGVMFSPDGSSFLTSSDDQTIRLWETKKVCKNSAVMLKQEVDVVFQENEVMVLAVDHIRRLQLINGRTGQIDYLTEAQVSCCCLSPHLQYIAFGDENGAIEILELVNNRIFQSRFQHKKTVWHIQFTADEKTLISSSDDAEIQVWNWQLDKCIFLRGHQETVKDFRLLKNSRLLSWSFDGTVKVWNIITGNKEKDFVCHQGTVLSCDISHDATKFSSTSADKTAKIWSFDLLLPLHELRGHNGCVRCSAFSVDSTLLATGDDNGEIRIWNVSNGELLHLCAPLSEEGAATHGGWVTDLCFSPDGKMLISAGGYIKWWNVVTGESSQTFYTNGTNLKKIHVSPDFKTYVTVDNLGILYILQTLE
Put plainly: SAR analysis of small molecule Activators of Apaf-1 in a Fluorescent assay. It counts as functional. To be noted: read-out: EC50_Mean.

The target of assay [2] is T2, Corticotropin-releasing factor receptor 2/Corticotropin-releasing factor-binding protein (Homo sapiens, UniProt P24387+Q13324).
T2 sequence (Q13324 whole entry): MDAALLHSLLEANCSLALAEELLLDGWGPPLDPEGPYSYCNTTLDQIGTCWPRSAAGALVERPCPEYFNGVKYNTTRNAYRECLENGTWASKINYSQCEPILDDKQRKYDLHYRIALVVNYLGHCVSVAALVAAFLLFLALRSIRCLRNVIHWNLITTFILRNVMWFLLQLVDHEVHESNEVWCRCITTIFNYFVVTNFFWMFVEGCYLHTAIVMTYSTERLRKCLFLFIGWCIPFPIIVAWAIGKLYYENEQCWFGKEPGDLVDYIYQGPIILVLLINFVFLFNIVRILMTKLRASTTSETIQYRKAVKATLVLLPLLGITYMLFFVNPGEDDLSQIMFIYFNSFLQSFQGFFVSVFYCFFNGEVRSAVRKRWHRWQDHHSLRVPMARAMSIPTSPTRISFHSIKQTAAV
T2 sequence (P24387 whole entry): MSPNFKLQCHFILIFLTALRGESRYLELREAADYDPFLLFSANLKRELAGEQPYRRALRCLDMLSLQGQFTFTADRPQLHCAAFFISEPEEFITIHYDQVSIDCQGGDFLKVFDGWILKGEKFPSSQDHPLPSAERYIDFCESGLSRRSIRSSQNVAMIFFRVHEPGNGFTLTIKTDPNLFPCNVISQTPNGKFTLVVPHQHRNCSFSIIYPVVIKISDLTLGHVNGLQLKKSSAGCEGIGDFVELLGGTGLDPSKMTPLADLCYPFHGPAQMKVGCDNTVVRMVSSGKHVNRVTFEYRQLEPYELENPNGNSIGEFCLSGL
Briefly: Dose Response confirmation of uHTS hits for small molecule antagonists of the CRF-binding protein and CRF-R2 receptor complex. The format is functional. The note with it: read-out: IC50_Mean.

Assay [3] has as its target T2, Corticotropin-releasing factor receptor 2/Corticotropin-releasing factor-binding protein. Briefly: activators of CRF receptor 2 with binding protein – uHTS hits, confirmation (AID 602473). To be noted: read-out: EC50_Mean. The format is functional.
Assay [4] is described as follows: blockers of CRF-binding protein–CRF-R2 complex – cell-based, uHTS hits, 384-well, dose response (AID 651639). It counts as functional, Homo sapiens. To be noted: read-out: IC50_Mean.
Assay [5] has as its target T3, High affinity choline transporter 1 (Homo sapiens, UniProt Q9GZV3).
T3 sequence (Q9GZV3 whole entry): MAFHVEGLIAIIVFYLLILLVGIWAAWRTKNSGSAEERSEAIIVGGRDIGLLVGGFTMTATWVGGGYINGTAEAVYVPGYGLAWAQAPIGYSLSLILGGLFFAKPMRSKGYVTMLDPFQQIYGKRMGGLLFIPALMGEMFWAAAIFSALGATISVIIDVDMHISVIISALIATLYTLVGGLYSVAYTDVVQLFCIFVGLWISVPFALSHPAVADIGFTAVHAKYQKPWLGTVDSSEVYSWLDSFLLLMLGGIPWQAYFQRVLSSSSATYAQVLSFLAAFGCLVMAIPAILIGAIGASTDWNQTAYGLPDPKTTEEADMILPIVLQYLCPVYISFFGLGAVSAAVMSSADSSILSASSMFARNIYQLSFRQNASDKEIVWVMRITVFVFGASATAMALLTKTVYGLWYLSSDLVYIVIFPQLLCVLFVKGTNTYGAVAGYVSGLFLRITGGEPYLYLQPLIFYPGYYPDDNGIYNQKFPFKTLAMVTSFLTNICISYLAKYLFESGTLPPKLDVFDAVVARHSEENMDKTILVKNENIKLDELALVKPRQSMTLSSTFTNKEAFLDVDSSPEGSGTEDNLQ
Briefly: human choline transporter blockers, potency – cell-based, 5-point CRC, membrane potential dye, dose response (AID 504840). The format is functional.

Assay [6] concerns the target T3, High affinity choline transporter 1. Briefly: human choline transporter blockers, potency – cell-based, 10-point CRC, membrane potential dye, dose response (AID 588401).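 Note: membrane potential dye fluorescence of choline-evoked depolarization via CHT.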 It counts as functional.
Assay [7] deals with T4, Carboxy-terminal domain RNA polymerase II polypeptide A small phosphatase 1 (Homo sapiens, UniProt Q9GZU7).
T4 sequence (Q9GZU7 whole entry): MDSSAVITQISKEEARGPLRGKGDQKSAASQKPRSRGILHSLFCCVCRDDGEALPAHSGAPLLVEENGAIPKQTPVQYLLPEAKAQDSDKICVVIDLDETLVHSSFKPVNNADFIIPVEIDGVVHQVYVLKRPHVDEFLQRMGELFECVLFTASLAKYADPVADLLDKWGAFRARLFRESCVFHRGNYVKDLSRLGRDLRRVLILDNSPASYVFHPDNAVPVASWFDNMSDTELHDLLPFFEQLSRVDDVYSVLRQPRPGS
Briefly: CTDSP1 inhibitors, concentration-response, biochemical, absorbance readout, ultra-high-throughput screen actives (AID 540297). It counts as functional.

The target in assay [8] is DNA (cytosine-5)-methyltransferase 1 (Homo sapiens, UniProt P26358). Put plainly: inhibition of DNA methylation by DNMT1 – biochemical, fluorescent molecular beacon, confirmation (AID 602386). The format is functional.
Chain of DNA (cytosine-5)-methyltransferase 1 (P26358 whole entry): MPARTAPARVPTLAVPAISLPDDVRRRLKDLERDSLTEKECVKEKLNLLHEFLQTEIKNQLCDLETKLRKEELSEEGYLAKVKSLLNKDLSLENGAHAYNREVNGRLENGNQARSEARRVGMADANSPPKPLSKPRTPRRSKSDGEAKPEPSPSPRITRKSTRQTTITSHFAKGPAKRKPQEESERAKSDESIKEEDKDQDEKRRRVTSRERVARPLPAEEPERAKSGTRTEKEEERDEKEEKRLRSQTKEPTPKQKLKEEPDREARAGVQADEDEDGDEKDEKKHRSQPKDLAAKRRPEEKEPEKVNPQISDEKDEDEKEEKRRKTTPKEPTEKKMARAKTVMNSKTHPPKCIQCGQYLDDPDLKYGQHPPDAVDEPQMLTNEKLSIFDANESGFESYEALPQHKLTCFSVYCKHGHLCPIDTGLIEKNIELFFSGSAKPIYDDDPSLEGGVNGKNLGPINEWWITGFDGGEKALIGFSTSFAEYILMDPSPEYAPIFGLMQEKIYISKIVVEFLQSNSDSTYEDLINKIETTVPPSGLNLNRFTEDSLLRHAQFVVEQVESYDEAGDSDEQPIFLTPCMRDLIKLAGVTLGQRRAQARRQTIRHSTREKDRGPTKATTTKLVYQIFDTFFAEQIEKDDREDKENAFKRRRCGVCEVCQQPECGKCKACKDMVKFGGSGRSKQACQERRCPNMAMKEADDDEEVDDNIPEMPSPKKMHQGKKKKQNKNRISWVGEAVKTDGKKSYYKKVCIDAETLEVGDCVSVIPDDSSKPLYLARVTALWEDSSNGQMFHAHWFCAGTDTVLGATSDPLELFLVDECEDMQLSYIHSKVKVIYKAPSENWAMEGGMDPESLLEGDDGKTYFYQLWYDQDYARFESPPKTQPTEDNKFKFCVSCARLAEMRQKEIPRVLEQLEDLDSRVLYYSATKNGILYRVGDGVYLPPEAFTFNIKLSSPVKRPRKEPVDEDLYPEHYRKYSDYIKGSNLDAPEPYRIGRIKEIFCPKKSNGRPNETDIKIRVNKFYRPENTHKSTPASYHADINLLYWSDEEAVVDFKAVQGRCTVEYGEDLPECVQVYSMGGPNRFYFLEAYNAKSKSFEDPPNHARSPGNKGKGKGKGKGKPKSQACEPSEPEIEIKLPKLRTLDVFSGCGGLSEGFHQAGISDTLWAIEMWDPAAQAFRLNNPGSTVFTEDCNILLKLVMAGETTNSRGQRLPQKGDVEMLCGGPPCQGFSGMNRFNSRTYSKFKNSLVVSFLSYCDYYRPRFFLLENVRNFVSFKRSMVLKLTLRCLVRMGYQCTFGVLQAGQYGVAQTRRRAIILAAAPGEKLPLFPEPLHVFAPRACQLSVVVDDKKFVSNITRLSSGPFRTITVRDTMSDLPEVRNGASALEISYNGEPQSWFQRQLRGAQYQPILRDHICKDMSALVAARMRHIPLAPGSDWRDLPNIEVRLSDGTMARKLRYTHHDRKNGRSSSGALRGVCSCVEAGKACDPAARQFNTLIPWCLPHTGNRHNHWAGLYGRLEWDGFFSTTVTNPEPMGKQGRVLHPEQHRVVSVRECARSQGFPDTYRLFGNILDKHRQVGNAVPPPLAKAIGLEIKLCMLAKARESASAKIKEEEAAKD
Assay [9] in a line: viability loss in THP-1 monocytes – THP-1 cells, cytotoxicity control for Vif-APOBEC3G degradation inhibitor project, dose response (AID 1117359). The format is functional. To be noted: THP-1.
In a further assay the target is Troponin, cardiac muscle (Homo sapiens, UniProt P19429+P45379+P63316). Briefly: Fluorescence-based biochemical high throughput dose response assay for activators of the calcium sensitivity of cardiac Regulated Thin Filaments (RTF). [Related pubchem assays (depositor defined):AID493008, AID493018, AID504382, AID504383]. The format is protein-complex assay.
For assay [10], the target named is T5, Polyadenylate-binding protein 1 (Homo sapiens, UniProt P11940). Briefly: MLLE binding blockers, Cy5 peptide tracer – biochemical, fluorescence polarization, Cy5-PAM2 peptide, secondary, miRNA deadenylation inhibitor project, dose response (AID 602260). It counts as functional. The note with it: read-out: IC50_Mean. (In fluorescence polarisation assays a small probe gives low polarisation when free and higher when bound to something large.)
T5 sequence (P11940 whole entry): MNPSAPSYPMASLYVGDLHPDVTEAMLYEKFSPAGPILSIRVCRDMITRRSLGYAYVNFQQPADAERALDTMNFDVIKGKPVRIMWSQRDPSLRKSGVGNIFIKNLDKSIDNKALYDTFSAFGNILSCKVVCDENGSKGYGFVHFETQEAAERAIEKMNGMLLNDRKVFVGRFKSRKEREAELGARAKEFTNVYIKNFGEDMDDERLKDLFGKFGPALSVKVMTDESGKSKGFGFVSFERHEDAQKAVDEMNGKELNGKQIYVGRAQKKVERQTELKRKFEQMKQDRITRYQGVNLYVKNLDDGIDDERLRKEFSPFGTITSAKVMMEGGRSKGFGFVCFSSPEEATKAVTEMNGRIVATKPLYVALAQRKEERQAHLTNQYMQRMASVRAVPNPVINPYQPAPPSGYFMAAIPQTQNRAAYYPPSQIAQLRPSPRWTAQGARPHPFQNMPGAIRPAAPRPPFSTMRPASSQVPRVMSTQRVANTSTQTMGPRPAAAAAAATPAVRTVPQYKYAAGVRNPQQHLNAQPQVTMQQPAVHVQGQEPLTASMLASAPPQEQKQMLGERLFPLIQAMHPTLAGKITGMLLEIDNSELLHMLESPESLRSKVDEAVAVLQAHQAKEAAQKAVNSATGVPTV

In assay [11] the target is T5, Polyadenylate-binding protein 1. Put plainly: MLLE domain peptide-binding blockers, IC50 – biochemical, fluorescence polarization, FITC-PAM2 peptide, dose response (AID 602259). To be noted: read-out: IC50_Mean. The format is functional.
Assay [12] deals with Melanin-concentrating hormone receptor 1 (Homo sapiens, UniProt Q99705). Briefly: Late-stage fluorescence-based counterscreen for antagonists of the G-protein coupled receptor 7 (GPR7): cell-based dose response assay to identify antagonists of the melanin-concentrating hormone receptor 1 (MCHR1) Set 5. The format is functional. A general note: A counterscreen serves to expose hits that act by an unwanted route or on another target.
Chain of Melanin-concentrating hormone receptor 1 (Q99705 whole entry): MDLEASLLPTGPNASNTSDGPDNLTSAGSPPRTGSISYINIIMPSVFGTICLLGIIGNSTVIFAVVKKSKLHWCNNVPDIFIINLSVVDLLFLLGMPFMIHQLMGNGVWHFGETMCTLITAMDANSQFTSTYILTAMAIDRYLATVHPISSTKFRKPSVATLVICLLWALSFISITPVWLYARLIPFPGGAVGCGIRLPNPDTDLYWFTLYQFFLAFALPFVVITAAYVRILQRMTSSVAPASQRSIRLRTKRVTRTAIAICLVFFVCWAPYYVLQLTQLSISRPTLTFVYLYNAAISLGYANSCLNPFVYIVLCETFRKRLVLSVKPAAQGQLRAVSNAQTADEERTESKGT

SMILES strings stand for the structures. The source made the active and inactive calls.

Turning to `O=C1CC2(CC(c3ccc(F)cc3)=NO2)C(=O)N1c1cccc(Cl)c1` (stereo not drawn), the EC50 in assay [1] was > 100 µM (inactive).
As for `O=C1NC(=S)S/C1=C\c1cccc([N+](=O)[O-])c1`, the IC50 in [2] was 16.7 µM (active); in [4], > 20 µM (inactive). For the same molecule, the EC50 in assay [3] is 10.8 µM (active).
For `COc1cc(Cl)c(C)cc1NC(=O)CCS(=O)(=O)c1ccc(Cl)cc1`, the EC50 in [1] is > 100 µM (inactive).
As for `O=C(NCC(c1ccco1)N1CCCCC1)c1cccc(NS(=O)(=O)c2ccc(Br)cc2)c1` (stereo not drawn), the IC50 in assay [5] was 6.92 µM (active); in assay [6], 3.36 µM (active).
In the same order, the values of `CCC(Oc1ccccc1)C(=O)Nc1ccc(S(=O)(=O)NCC2CCCO2)cc1` (stereo not drawn) are 10.5 µM (active) and 11.2 µM (active).
Usually CC50 stands for the concentration giving 50% cytotoxicity. For `COc1ccc(NC(=O)CN(C)C(=O)c2cc(-c3ccco3)nc3ccccc23)cc1`, the IC50 in assay [7] is 2.55 µM (active); in assay [8], 6.24 µM (active). Besides, the CC50 in assay [9] is > 40 µM (active).
`CN1c2ccccc2C(O)=C(C(S)=Nc2ccc(F)c(Cl)c2)S1(=O)=O`: the EC50 on Troponin, cardiac muscle is > 71.5 µM (inactive). Further, the IC50 was 4.79 µM (active) in assay [5], 3.55 µM (active) in [6], > 66 µM (inactive) in assay [10] and > 66 µM (inactive) in [11].
For the molecule `COc1cc(Oc2c(Cl)cnn(Cc3cccc4ccccc34)c2=O)cc(OC)c1OC`, the IC50 in assay [12] was 3.22 µM (active).
